system: not listed separately; experiment: Uptake over CACO-2 cell monolayers; format: in vitro ADME; settings: human, apical to basolateral
From the text: Uptake of a drug over the intestine can be predicted measuring the uptake over a monolayer of CACO-2 cells measured as Papp(10^-6 cm/s). […] By introduction of small alkyl substituents to the galactoside 2-OH such as compounds of formula (1) results in low or no efflux combined with a high uptake (Papp >10 10^-6 cm/s) over CACO-2 cells from the apical to the basolateral side of the cells.

Question: Which Papp A→B does the source give for `Cc1ccc(-c2cn([C@@H]3C(O)[C@@H](Sc4cc(Cl)cnc4C#N)OC(CO)[C@@H]3O)nn2)cc1F` (some centres unmarked) here?
Answer: 3 ×10⁻⁶ cm/s

same assay, conditions: human, basolateral to apical

Question: For `Cc1ccc(-c2cn([C@@H]3C(O)[C@@H](Sc4cc(Cl)cnc4C#N)OC(CO)[C@@H]3O)nn2)cc1F` (some centres unmarked), which Papp B→A is on record?
Answer: 30 ×10⁻⁶ cm/s

same assay, conditions: human, read-out: Efflux ratio Papp (B > A/A > B)

Question: With `Cc1ccc(-c2cn([C@@H]3C(O)[C@@H](Sc4cc(Cl)cnc4C#N)OC(CO)[C@@H]3O)nn2)cc1F` (some centres unmarked) as the molecule, how does the efflux ratio read?
Answer: 10

molecular target: galectin-3 (Homo sapiens (Human), UniProt P17931); experiment: Fluorescence anisotropy assay, inhibition of galectin / fluorescein tagged saccharide probe interaction; format: binding; settings: not given
Procedure: Evaluation of Kd Values The affinity of Example 1-71 for galectins were determined by a fluorescence anisotropy assay where the compound was used as an inhibitor of the interaction between galectin and a fluorescein tagged saccharide probe as described Sörme, P., Kahl-Knutsson, B., Huflejt, M., Nilsson, U. J., and Leffler H. (2004) Fluorescence polarization as an analytical tool to evaluate galectin-ligand interactions. Anal. Biochem. 334: 36-47, (Sörme et al., 2004) and Monovalent interactions of Galectin-1 By Salomonsson, Emma; Larumbe, Amaia; Tejler, Johan; Tullberg, Erik; Rydberg, Hanna; Sundin, Anders; Khabut, Areej; Frejd, Torbjorn; Lobsanov, Yuri D.; Rini, James M.; et al, From Biochemistry (2010), 49(44), 9518-9532, (Salomonsson et al., 2010). […] 100 nM albumin was included as a carrier to prevent protein loss at such low concentration of galectin.

Chain of galectin-3 (P17931 whole entry): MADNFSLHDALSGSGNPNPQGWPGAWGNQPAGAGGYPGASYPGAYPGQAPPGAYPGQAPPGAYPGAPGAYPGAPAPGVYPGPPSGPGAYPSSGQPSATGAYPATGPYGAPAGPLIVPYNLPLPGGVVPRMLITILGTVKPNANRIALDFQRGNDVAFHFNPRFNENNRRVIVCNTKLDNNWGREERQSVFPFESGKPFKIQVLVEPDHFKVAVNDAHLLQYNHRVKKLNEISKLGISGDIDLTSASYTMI

Question: With `CO[C@@H]1[C@@H](n2cc(-c3cc(F)c(F)c(F)c3)nn2)[C@@H](O)[C@@H](CO)O[C@@H]1Sc1cc(Cl)cnc1C1=CCNC1` [Example 29, 5-Chloro-2-(3-pyrrolin-3-yl)pyridin-3-yl 3-deoxy-3-[4-(3,4,5-trifluorophenyl)-1H-1,2,3-triazol-1-yl]-2-O-methyl-1-thio-α-D-galactopyranoside] as the molecule, how does the Kd read?
Answer: 68 nM

Question: For `CO[C@@H]1[C@@H](n2cc(-c3cc(F)c(C)c(F)c3)nn2)[C@@H](O)[C@@H](CO)O[C@@H]1Sc1cc(Cl)cnc1C#N` [Example 12, 5-Chloro-2-cyanopyridin-3-yl 3-deoxy-3-[4-(3,5-difluoro-4-methylphenyl)-1H-1,2,3-triazol-1-yl]-2-O-methyl-1-thio-α-D-galactopyranoside], which Kd is on record?
Answer: 12 nM

Question: Which Kd does the source give for `CO[C@@H]1[C@@H](n2cc(-c3cc(F)c(F)c(F)c3)nn2)[C@@H](O)[C@@H](CO)O[C@@H]1Sc1cc(Br)ccc1C(=O)N1CCC1` [Example 64, 2-(N-azetidinyl-carbonyl)-5-bromophenyl 3-deoxy-3-[4-(3,4,5-trifluorophenyl)-1H-1,2,3-triazol-1-yl]-2-O-methyl-1-thio-α-D-galactopyranoside] here?
Answer: 16 nM

Question: Which Kd does the source give for `CO[C@@H]1[C@@H](n2cc(-c3cc(F)c(Cl)c(F)c3)nn2)[C@@H](O)[C@@H](CO)O[C@@H]1Sc1cnc(C(F)(F)F)c(C)c1` [Example 39, 6-Trifluoromethyl-5-methylpyridin-3-yl 3-[4-(4-chloro-3,5-difluorophenyl)-1H-1,2,3-triazol-1-yl]-3-deoxy-2-O-methyl-1-thio-α-D-galactopyranoside] here?
Answer: 280 nM

Question: For `COC1[C@@H](Sc2cc(Cl)c(C#N)nc2N2CC3(COC3)C2)OC(CO)[C@H](O)[C@@H]1n1cc(-c2cc(F)c(Cl)c(F)c2)nn1` (stereo partly drawn) [Example 22, 5-Chloro-6-cyano-2-{N-(2-oxa)-6-azaspiro[3.3]heptanyl}-pyridin-3-yl 3-[4-(4-chloro-3,5-difluorophenyl)-1H-1,2,3-triazol-1-yl]-3-deoxy-2-O-methyl-1-thio-α-D-galactopyranoside], which Kd is on record?
Answer: 60 nM

Question: With `CO[C@@H]1[C@@H](n2cc(-c3cc(F)c(Cl)c(F)c3)nn2)[C@@H](O)[C@@H](CO)O[C@@H]1Sc1cc(Cl)ccc1C(=O)N1CCCCC1` [Example 6, 2-(N-piperidinyl-carbonyl)-5-chlorophenyl 3-[4-(4-chloro-3,5-difluorophenyl)-1H-1,2,3-triazol-1-yl]-3-deoxy-2-O-methyl-1-thio-α-D-galactopyranoside] as the molecule, how does the Kd read?
Answer: 120 nM

Question: For `CO[C@@H]1[C@@H](n2cc(-c3cc(F)c(F)c(F)c3)nn2)[C@@H](O)[C@@H](CO)O[C@@H]1Sc1cc(Cl)cnc1-c1ncco1` [Example 30, 5-Chloro-2-(oxazol-2-yl)pyridin-3-yl 3-deoxy-3-[4-(3,4,5-trifluorophenyl)-1H-1,2,3-triazol-1-yl]-2-O-methyl-1-thio-α-D-galactopyranoside], which Kd is on record?
Answer: 56 nM

Question: For `CO[C@@H]1[C@@H](n2cc(-c3cc(F)c(Cl)c(F)c3)nn2)[C@@H](O)[C@@H](CO)O[C@@H]1Sc1cnc(C(F)(F)F)c(C#N)c1` [Example 58, 5-Cyano-6-trifluoromethylpyridin-3-yl 3-[4-(4-chloro-3,5-difluorophenyl)-1H-1,2,3-triazol-1-yl]-3-deoxy-2-O-methyl-1-thio-α-D-galactopyranoside], which Kd is on record?
Answer: 190 nM

Question: For `CO[C@@H]1[C@@H](n2cc(-c3ccc(Cl)c(F)c3)nn2)[C@@H](O)[C@@H](CO)O[C@@H]1Sc1cncc(Br)c1` [Example 38, 5-Bromopyridin-3-yl 3-[4-(4-chloro-3-fluorophenyl)-1H-1,2,3-triazol-1-yl]-3-deoxy-2-O-methyl-1-thio-α-D-galactopyranoside], which Kd is on record?
Answer: 62 nM

Question: For `CC(C)O[C@@H]1[C@@H](n2cc(-c3cc(F)c(F)c(F)c3)nn2)[C@@H](O)[C@@H](CO)O[C@@H]1Sc1cncc(Br)c1` [Example 18, 5-Bromopyridin-3-yl 3-deoxy-3-[4-(3,4,5-trifluorophenyl)-1H-1,2,3-triazol-1-yl]-2-O-isopropyl-1-thio-α-D-galactopyranoside], which Kd is on record?
Answer: 150 nM

Question: With `CO[C@@H]1[C@@H](n2cc(-c3cc(F)c(F)c(F)c3)nn2)[C@@H](O)[C@@H](CO)O[C@@H]1Sc1cc(Cl)cnc1C1=CCNCC1` [Example 28, 5-Chloro-2-(1,2,3,6-tetrahydropyridin-4-yl)pyridin-3-yl 3-deoxy-3-[4-(3,4,5-trifluorophenyl)-1H-1,2,3-triazol-1-yl]-2-O-methyl-1-thio-α-D-galactopyranoside] as the molecule, how does the Kd read?
Answer: 36 nM

Question: Which Kd does the source give for `CO[C@@H]1[C@@H](n2cc(-c3cc(F)c(F)c(F)c3)nn2)[C@@H](O)[C@@H](CO)O[C@@H]1Sc1cc(Cl)cnc1C#N` [Example 46, 5-Chloro-2-cyanopyridin-3-yl 3-deoxy-3-[4-(3,4,5-trifluorophenyl)-1H-1,2,3-triazol-1-yl]-2-O-methyl-1-thio-α-D-galactopyranoside] here?
Answer: 35 nM

Question: For `C#Cc1cncc(S[C@H]2O[C@H](CO)[C@H](O)[C@H](n3cc(-c4cc(F)c(Cl)c(F)c4)nn3)[C@H]2OC)c1` [Example 54, 5-Ethynylpyridin-3-yl 3-[4-(4-chloro-3,5-difluorophenyl)-1H-1,2,3-triazol-1-yl]-3-deoxy-2-O-methyl-1-thio-α-D-galactopyranoside], which Kd is on record?
Answer: 35 nM

Question: For `CCO[C@@H]1[C@@H](n2cc(-c3cc(F)c(F)c(F)c3)nn2)[C@@H](O)[C@@H](CO)O[C@@H]1Sc1cc(Br)ccc1C(=O)N1CCC1` [Example 65, 2-(N-azetidinyl-carbonyl)-5-bromophenyl 3-deoxy-3-[4-(3,4,5-trifluorophenyl)-1H-1,2,3-triazol-1-yl]-2-O-ethyl-1-thio-α-D-galactopyranoside], which Kd is on record?
Answer: 18 nM

Question: With `COC1[C@@H](Sc2cc(Cl)cnc2N2CC3(COC3)C2)OC(CO)[C@H](O)[C@@H]1n1cc(-c2cc(F)c(F)c(F)c2)nn1` (stereo partly drawn) [Example 10, 5-Chloro-2-{N-(2-oxa)-6-azaspiro[3.3]heptanyl}-pyridin-3-yl 3-deoxy-3-[4-(3,4,5-trifluorophenyl)-1H-1,2,3-triazol-1-yl]-2-O-methyl-1-thio-α-D-galactopyranoside] as the molecule, how does the Kd read?
Answer: 33 nM

Question: Which Kd does the source give for `OC[C@H]1O[C@H](Sc2cncc(Br)c2)[C@H](OCCF)[C@@H](n2cc(-c3cc(F)c(F)c(F)c3)nn2)[C@H]1O` [Example 19, 5-Bromopyridin-3-yl 3-deoxy-3-[4-(3,4,5-trifluorophenyl)-1H-1,2,3-triazol-1-yl]-2-O-(2-fluoroethyl)-1-thio-α-D-galactopyranoside] here?
Answer: 20 nM

Question: Which Kd does the source give for `CO[C@@H]1[C@@H](n2cc(-c3cc(F)c(F)c(F)c3)nn2)[C@@H](O)[C@@H](CO)O[C@@H]1Sc1cc(Cl)cnc1-c1ccncc1` [Example 27, 5-Chloro-2-(pyridin-4-yl)pyridin-3-yl 3-deoxy-3-[4-(3,4,5-trifluorophenyl)-1H-1,2,3-triazol-1-yl]-2-O-methyl-1-thio-α-D-galactopyranoside] here?
Answer: 56 nM

Question: With `CCO[C@@H]1[C@@H](n2cc(-c3cc(F)c(F)c(F)c3)nn2)[C@@H](O)[C@@H](CO)O[C@@H]1Sc1cc(Cl)cnc1C#N` [Example 16, 5-Chloro-2-cyanopyridin-3-yl 3-deoxy-2-O-ethyl-3-[4-(3,4,5-trifluorophenyl)-1H-1,2,3-triazol-1-yl]-1-thio-α-D-galactopyranoside] as the molecule, how does the Kd read?
Answer: 59 nM

Question: With `CO[C@@H]1[C@@H](n2cc(-c3cc(F)c(F)c(F)c3)nn2)[C@@H](O)[C@@H](CO)O[C@@H]1Sc1cc(Cl)cnc1-c1nccs1` [Example 31, 5-Chloro-2-(thiazol-2-yl)pyridin-3-yl 3-deoxy-3-[4-(3,4,5-trifluorophenyl)-1H-1,2,3-triazol-1-yl]-2-O-methyl-1-thio-α-D-galactopyranoside] as the molecule, how does the Kd read?
Answer: 300 nM

Question: For `CO[C@@H]1[C@@H](n2cc(-c3cc(F)c(Cl)c(F)c3)nn2)[C@@H](O)[C@@H](CO)O[C@@H]1Sc1cncc(Cl)c1` [Example 33, 5-Chloropyridin-3-yl 3-[4-(4-chloro-3,5-difluorophenyl)-1H-1,2,3-triazol-1-yl]-3-deoxy-2-O-methyl-1-thio-α-D-galactopyranoside], which Kd is on record?
Answer: 31 nM

Question: For `COC1[C@@H](Sc2cc(Cl)cnc2N2CC3(COC3)C2)OC(CO)[C@H](O)[C@@H]1n1cc(-c2cc(F)c(Cl)c(F)c2)nn1` (stereo partly drawn) [Example 11, 5-Chloro-2-{N-(2-oxa)-6-azaspiro[3.3]heptanyl}-pyridin-3-yl 3-[4-(4-chloro-3,5-difluorophenyl)-1H-1,2,3-triazol-1-yl]-3-deoxy-2-O-methyl-1-thio-α-D-galactopyranoside], which Kd is on record?
Answer: 49 nM

Question: For `CO[C@@H]1[C@@H](n2cc(-c3cc(F)c(Cl)c(F)c3)nn2)[C@@H](O)[C@@H](CO)O[C@@H]1Sc1cc(Cl)ccc1C(=O)N1CCC1` [Example 40, 2-(N-azetidinyl-carbonyl)-5-chlorophenyl 3-[4-(4-chloro-3,5-difluorophenyl)-1H-1,2,3-triazol-1-yl]-3-deoxy-2-O-methyl-1-thio-α-D-galactopyranoside], which Kd is on record?
Answer: 15 nM

Question: For `C#Cc1cnc(C#N)c(S[C@H]2O[C@H](CO)[C@H](O)[C@H](n3cc(-c4cc(F)c(Cl)c(F)c4)nn3)[C@H]2OC)c1` [Example 56, 2-Cyano-5-ethynylpyridin-3-yl 3-[4-(4-chloro-3,5-difluorophenyl)-1H-1,2,3-triazol-1-yl]-3-deoxy-2-O-methyl-1-thio-α-D-galactopyranoside], which Kd is on record?
Answer: 28 nM
